Data from the NIST ThermoML archive (doi:10.1021/acs.jced.7b00148).
Numbers after ± are expanded uncertainties.

Conditions: Liquid; for vapor or sublimation pressure: Closed cell (Static) method; for Critical pressure: Direct measurement; for Critical temperature: Visual observation in an unstirred cell

CC=C(C)C [2-methyl-2-butene]
Conditions	Critical pressure [kPa]	Critical temperature [K]	vapor or sublimation pressure [kPa]
–	3686 ± 26	477.47 ± 0.24	–
307.63 K	–	–	87 ± 2
325.06 K	–	–	157 ± 3
340.98 K	–	–	249 ± 3
350.14 K	–	–	321 ± 3
364.85 K	–	–	463 ± 4
372.91 K	–	–	560 ± 5
380.97 K	–	–	673 ± 5
389.83 K	–	–	811 ± 6
397.89 K	–	–	954 ± 6
408.17 K	–	–	1167 ± 7
422.67 K	–	–	1524 ± 9
430.83 K	–	–	1758 ± 10
439.09 K	–	–	2021 ± 11
448.36 K	–	–	2349 ± 13
453.3 K	–	–	2541 ± 14
454.71 K	–	–	2600 ± 14
461.46 K	–	–	2884 ± 15
464.08 K	–	–	3006 ± 16
470.72 K	–	–	3327 ± 17
471.73 K	–	–	3377 ± 17
473.04 K	–	–	3442 ± 18
475.16 K	–	–	3556 ± 18
477.47 K	–	–	3686 ± 19

C=C(C)CC [2-methyl-1-butene]
Conditions	Critical pressure [kPa]	Critical temperature [K]	vapor or sublimation pressure [kPa]
–	3652 ± 26	467.9 ± 0.24	–
299.27 K	–	–	85 ± 2
323.65 K	–	–	190 ± 3
341.18 K	–	–	312 ± 3
353.77 K	–	–	431 ± 4
366.06 K	–	–	579 ± 5
368.18 K	–	–	608 ± 5
375.63 K	–	–	717 ± 5
386.21 K	–	–	898 ± 6
398.5 K	–	–	1149 ± 7
409.28 K	–	–	1402 ± 8
419.65 K	–	–	1695 ± 10
429.02 K	–	–	1985 ± 11
431.24 K	–	–	2065 ± 11
438.39 K	–	–	2316 ± 13
448.46 K	–	–	2723 ± 14
457.43 K	–	–	3118 ± 16
460.55 K	–	–	3271 ± 17
463.37 K	–	–	3409 ± 17
465.49 K	–	–	3523 ± 18
467.9 K	–	–	3652 ± 19

C=CC(C)C [3-methyl-1-butene]
Conditions	Critical pressure [kPa]	Critical temperature [K]	vapor or sublimation pressure [kPa]
–	3463 ± 26	451.38 ± 0.24	–
302.9 K	–	–	140 ± 3
323.75 K	–	–	264 ± 3
336.44 K	–	–	374 ± 4
350.65 K	–	–	533 ± 4
358.2 K	–	–	635 ± 5
371.6 K	–	–	855 ± 6
382.88 K	–	–	1073 ± 7
390.84 K	–	–	1255 ± 8
399 K	–	–	1458 ± 9
405.25 K	–	–	1632 ± 9
413.2 K	–	–	1874 ± 11
420.56 K	–	–	2113 ± 12
431.03 K	–	–	2509 ± 13
439.9 K	–	–	2885 ± 15
445.14 K	–	–	3138 ± 16
447.76 K	–	–	3260 ± 17
450.48 K	–	–	3407 ± 18
451.38 K	–	–	3463 ± 18

C=CCCC [1-pentene]
Conditions	Critical pressure [kPa]	Critical temperature [K]	vapor or sublimation pressure [kPa]
–	3585 ± 26	466.59 ± 0.24	–
297.86 K	–	–	84 ± 2
327.08 K	–	–	216 ± 3
336.14 K	–	–	279 ± 3
346.92 K	–	–	372 ± 4
356.19 K	–	–	468 ± 4
356.89 K	–	–	474 ± 4
366.77 K	–	–	600 ± 5
377.34 K	–	–	757 ± 5
387.42 K	–	–	933 ± 6
394.67 K	–	–	1085 ± 7
399.61 K	–	–	1193 ± 7
403.03 K	–	–	1269 ± 8
411.19 K	–	–	1472 ± 9
420.96 K	–	–	1752 ± 10
426.1 K	–	–	1915 ± 11
436.17 K	–	–	2255 ± 12
439.5 K	–	–	2373 ± 13
445.74 K	–	–	2622 ± 14
452.59 K	–	–	2902 ± 15
456.52 K	–	–	3081 ± 16
457.93 K	–	–	3152 ± 16
460.95 K	–	–	3294 ± 17
462.87 K	–	–	3389 ± 17
463.77 K	–	–	3443 ± 18
466.59 K	–	–	3585 ± 18
